According to PubChem BioAssay (NCI):
Where “and” joins values, the source holds several entries; their conditions need not be identical. Equal values may be shown once.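 Tested at 5 concentrations; 48 h exposure; 96-well plates; endpoints linearly interpolated, else capped at highest concentration. GI50 = concentration required for 50% inhibition of growth. TGI marks complete inhibition of growth.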

Legend:
Assay in all cases: DTP human tumour cell line panel, 48 h
[1] = tested on: UACC-62 melanoma
[2] = tested on: MALME-3M melanoma
[3] = tested on: RPMI-8226 leukemia
[4] = tested on: EKVX NSCLC
[5] = tested on: M14 melanoma
[6] = tested on: SNB-75 CNS
[7] = tested on: ACHN renal
[8] = tested on: SF-295 CNS
[9] = tested on: HOP-62 NSCLC
[10] = tested on: UACC-257 melanoma

Row | Structure (SMILES) | GI50 [1] | TGI [1] | TGI [2] | GI50 [3] | TGI [3] | GI50 [4] | TGI [4] | GI50 [5] | TGI [5] | GI50 [6] | TGI [6] | GI50 [7] | TGI [7] | TGI [8] | GI50 [9] | TGI [9] | GI50 [10] | TGI [10] | GI50 [2] | GI50 [8]
1 | C[As](C)SCC(COC(=O)c1ccccc1)OC(=O)c1ccccc1 (stereo not drawn) | 0.156 µM | 1.37 µM | 0.0345 µM | 0.0264 µM | 0.357 µM | 1.86 µM | 10.7 µM | 0.0588 µM | 1.86 µM | 0.968 µM | 12.7 µM | 0.0369 µM | 0.285 µM | 1.35 µM | 0.742 µM | 1.86 µM | 0.066 µM | 1.51 µM |  | 
2 | CN(C)c1ccc(/C=C/C(=O)c2ccc(Nc3nc(Nc4ccc(F)cc4)nc(Nc4ccc(Cl)cc4)n3)cc2)cc1 | 14 µM | 37.9 µM | 33.8 µM | 3.53 µM | 26.5 µM | 8.21 µM | > 100 µM | 4.29 µM | 19.1 µM | 9 µM | 38.9 µM | 6.13 µM | > 100 µM | 31.9 µM | 9.42 µM | 28.3 µM | 11 µM | 54.7 µM | 10.7 µM | 4.78 µM
3 | CC[N+]1(C)CCC(O)(/C=C/c2ccccc2)C(C(=O)/C=C/c2ccccc2)C1 (stereo not drawn) |  | 33.4 µM | 26.9 µM |  | 5.76 µM |  | 51.6 µM |  | 25.8 µM |  | 34.7 µM |  | 25.4 µM | 33.4 µM |  | 35.5 µM |  | 24.8 µM |  | 
4 | NC(=O)NOCC1NC(=O)NC1=O (stereo not drawn) |  | > 100 µM | > 100 µM |  | > 100 µM |  | > 100 µM |  | > 100 µM |  | > 100 µM |  | > 100 µM | > 100 µM |  | > 100 µM |  | > 100 µM |  | 
5 | COc1ccc(-c2nccn2-c2cc(OC)c(OC)c(OC)c2)cc1 | 0.675 µM | 24.1 µM | > 100 µM | 8.06 µM | > 93.2 µM | > 54.5 µM | > 100 µM | 6 µM | > 100 µM | 1.51 µM | > 76.3 µM | 6.07 µM | > 100 µM | > 68.1 µM | 13.7 µM | > 100 µM | 73.1 µM | > 100 µM | 1.96 µM | 1.78 µM
6 | O=C1[C@@H]2C3C=CC([C@H]4C(=O)N(CO)C(=O)[C@@H]34)[C@@H]2C(=O)N1CO |  | > 100 µM | > 100 µM |  | 49.5 µM |  | > 100 µM |  | > 75.2 µM |  | > 100 µM |  | > 83.5 µM | > 100 µM |  | > 100 µM |  | > 100 µM |  | 
7 | COc1ccc(/C(C)=C(\c2ccc(Cl)cc2)c2ccc(OCCN3CCCCC3)cc2)cc1F | 3.68 µM | 8.9 µM | 4.46 µM | 3.49 µM | 8.49 µM | 4.78 µM | > 16.7 µM | 2.61 µM | 6.17 µM | 4.29 µM | 13.1 µM | 4.93 µM | 14.4 µM | 5.52 µM | 3.34 µM | 6.58 µM | 3.1 µM | 7.04 µM | 2.18 µM | 2.75 µM
8 | NCCN.O=N[O-].O=N[O-].O=N[O-].O=N[O-].[Co+3].[K+] | > 100 µM | > 100 µM | > 100 µM | > 100 µM | > 100 µM | > 100 µM | > 100 µM | > 100 µM | > 100 µM | > 100 µM | > 100 µM | > 100 µM | > 100 µM | > 100 µM | > 100 µM | > 100 µM | > 100 µM | > 100 µM | > 100 µM | > 100 µM
9 | CCCCCC1C2C(=O)NC(=O)C1C(=O)NC2=O (stereo not drawn) |  | > 100 µM | > 100 µM |  | > 100 µM |  | > 100 µM |  | > 100 µM |  | > 100 µM |  | > 100 µM | > 100 µM |  | > 100 µM |  | > 100 µM |  | 
10 | O=C1C2=C(Nc3cc([N+](=O)[O-])ccc3N2)OC1c1c[nH]c2ccc(COc3ccccc3)cc12 (stereo not drawn) |  | > 100 µM | > 100 µM |  | > 100 µM |  | > 100 µM |  | > 100 µM |  | 65.9 µM |  | > 100 µM | > 100 µM |  | > 100 µM |  | > 100 µM |  | 
11 | CCN(CC)CCCC(C)NC(=S)N/N=C(\C)c1ccccn1 (stereo not drawn) | 3.02 µM | > 100 µM | > 100 µM | 5.84 µM | > 100 µM | 6.71 µM | > 100 µM | 2.8 µM | 17.8 µM | 7.55 µM | > 100 µM | 2.99 µM | > 100 µM | > 100 µM | 5.86 µM | 83.1 µM | 3.16 µM | 31.2 µM | 3.96 µM | 4.38 µM
12 | CC(CCC/C=C/CCCN(C)C(=N)N)CC(C)C1OC(=O)C(C)C(O)/C=C/C(C)C(O)C(C)C(O)C(C)C(O)CCCC(O)CC2(O)OC(CC(OC(=O)CC(=O)O)CC(O)CC(O)C(C)C(O)/C=C/C=C/C1C)CC(O)C2O (stereo not drawn) | 2.13 µM and 8.05 µg/mL | 4.52 µM and 19.1 µg/mL | 5 µM and 11.7 µg/mL | 2.71 µM and 9.09 µg/mL | 10.5 µM and 28 µg/mL | 3.41 µM and 6.84 µg/mL | 12.6 µM and 16.8 µg/mL | 2.51 µM and 9.44 µg/mL | 6.32 µM and 23.9 µg/mL | 2.05 µM and 1.34 µg/mL | 4.94 µM and 7.44 µg/mL | 2 µM and 5.72 µg/mL | 4.31 µM and 20.6 µg/mL | 17 µM and 22.5 µg/mL | 4.29 µM and 10.5 µg/mL | 17.1 µM and 21.6 µg/mL | 2.16 µM and 1.98 µg/mL | 4.29 µM and 6.29 µg/mL | 2.37 µM and 2.57 µg/mL | 4.16 µM and 11.7 µg/mL
13 | Cc1nc2cc(NC(=O)CN3CCN(CCN4C(=O)c5cccc6cccc(c56)C4=O)CC3)ccc2s1 | 4.98 µM | 17.6 µM | > 100 µM | 2.91 µM | 15.2 µM | 7.88 µM | > 100 µM | 8.76 µM | 23 µM | 3.51 µM | 21.4 µM | 3.5 µM | 25 µM | > 100 µM | 3.83 µM | 15.1 µM | 5.83 µM | > 100 µM | 4.99 µM | 3.48 µM
